Results from patent US4477440A, “Renin inhibitors containing an n-terminal disulfide cycle” (Merck & Co., Inc., priority 1983, dated 1984).
Positions of bridges follow the written chain, without caps; N, C: chain ends. Non-standard residues stand in square brackets, D forms with d. Residues, ends and D or L forms follow the SMILES beside them. Sta = CC(C)C[C@H](N)[C@@H](O)CC(=O)O; hCys = N[C@@H](CCS)C(=O)O

Tests used:
[1] = biological target: T1, human kidney renin (Homo sapiens, UniProt P00797); assay: Human renin inhibition; type: biochemical; details: purified human kidney renin; dissociation constant of enzyme-inhibitor complex
T1 construct: human kidney renin purified as described in Bangham; from tissue; host or cells: human kidney
T1 sequence (P00797 67-406): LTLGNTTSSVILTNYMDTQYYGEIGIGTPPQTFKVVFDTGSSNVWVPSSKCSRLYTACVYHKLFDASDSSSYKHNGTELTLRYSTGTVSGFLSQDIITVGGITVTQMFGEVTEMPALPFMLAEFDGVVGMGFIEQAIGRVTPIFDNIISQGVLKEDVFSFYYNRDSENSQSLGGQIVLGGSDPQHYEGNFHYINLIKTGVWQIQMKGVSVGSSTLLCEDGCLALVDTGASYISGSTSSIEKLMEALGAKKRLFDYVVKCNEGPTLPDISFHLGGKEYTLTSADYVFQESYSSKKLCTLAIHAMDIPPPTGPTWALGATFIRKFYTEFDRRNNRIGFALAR
Protocol: An assay was carried out in order to determine the inhibitory potency of the peptides of the present invention. The assay measured the inhibition of human kidney renin purified as described in Bangham, D. R., Robertson, I., Robinson, J. I. S., Robinson, C. J., and Tree, M., Clinical Science and Molecular Medicine, 48 (Supp. 2): 136s-159s (1975), and further purified by affinity chromatography on pepstatin-aminohexyl-Sepharase as described in Poe, M., Wu., J. K., Florance, J. R., Radkey, J. A., Bennett, C. D., and Hoogsteen, K., J. Biol. Chem. (1982, in press). The assay was also in accordance with Poe et al. cited above. Results are expressed as KI values, which refer to the dissociation constant of the inhibited enzyme-inhibitor complex. This KI value was obtained as described above. Pepstatin was used as an active control.

[2] = test system: hog renin; details: after injection of hog renin into nephrectomized rats; cited from earlier work

| Ki [1] | Compound | blood pressure in vivo [2] |
| --- | --- | --- |
| 410 nM | COC(=O)[C@H](Cc1ccccc1)NC(=O)[C@H](CC(C)C)NC(=O)C[C@H](O)[C@H](CC(C)C)NC(=O)[C@@H]1CCSSCC[C@H](N)C(=O)N2CCC[C@H]2C(=O)N[C@@H](Cc2ccccc2)C(=O)N1 (H-[hCys]PF[hCys][Sta]LF-OMe; disulfide 1-4) |  |
|  | pepstatin | reduce blood pressure in vivo |
